According to patent US11591319B2, “Small molecule inducers of autophagy” (Board of Regents, The University of Texas System, priority 2018, dated 2023):

These compounds were tested against Beclin 1/Bcl-2 interaction (Homo sapiens (Human), UniProt P10415) (assay: Beclin 1/Bcl-2 AlphaLISA assay (dose-response)).
Type: binding
Text: We also developed a high-throughput Beclin 1/Bcl-2 AlphaLISA assay to directly measure the in vitro interaction between Beclin 1 and Bcl-2. AlphaLISA is a bead-based proximity assay that is capable of measuring protein-protein interaction in homogeneous solution.^41 Oxygen singlet molecules are generated by Alpha donor beads upon irradiation at 680 nm and travel to acceptor beads in proximity. […] Thus, a measurable Alpha luminescence signal requires chemical energy transfer between the donor and acceptor beads, and a pair of interacting molecules immobilized on the beads stabilizes bead association to produce measurable Alpha signals.
We used purified recombinant Beclin 1 and Bcl-2 proteins for AlphaLISA, which were optimized for enhanced solubility and expression. Human Beclin 1 was expressed as a fusion protein with StrepII-SUMO at the N-terminus, and three residues on the aromatic finger of Beclin 1 were mutated (F359D/F360D/W361D) to improve solubility and protein stability.^42 These mutations are in the BARA domain, which is far from the BH3 motif recognized by Bcl-2. A recombinant Bcl-2-binding deficient mutant of Beclin 1 (StrepII-SUMO-Beclin 1^ΔBcl-2BD) was used as a negative control. […] For a normalization control, we included a parallel AlphaLISA assay with purified SUMO protein (with an N-terminal StrepII tag and a C-terminal 6xHis tag). The purpose of a normalization control is to eliminate inner filter (false-positive) hits that reduce luminescence signal by interfering with the AlphaLISA assay in ways that are unrelated to the Beclin 1/Bcl-2 interaction. With the normalization control, the interaction of Beclin 1 and Bcl-2 was measured as follows:
All AlphaLISA assays were performed in triplicate in a 384-well format with BB buffer (phosphate-buffered saline supplemented with 0.5% BSA and 1 mM DTT). For the Beclin 1/Bcl-2 AlphaLISA, purified StrepII-SUMO-Beclin 1 was incubated with Bcl-2-6xHis proteins at 300 nM and 60 nM, respectively. For internal control AlphaLISA assays, StrepII-SUMO-6xHis protein (internal control) was used at 20 nM. […] Following the initial incubation, Strep-Tactin Alpha donor (AS106D) and anti-6xHis AlphaLISA acceptor beads (AL128M) were added to a final concentration of 40 μg/mL each and incubated at room temperature in the dark for an additional 1 h. All samples were evaluated in triplicate. Alpha signals were measured by an Envision plate reader (Perkin Elmer). Beclin 1/Bcl-2 Alpha signal was normalized with internal control Alpha signal. The normalized value represents the binding activity of Beclin 1 and Bcl-2. The percent activity of a compound was calculated as the following formula: […]
Protein or peptide concentrations used in dose-response AlphaLISA experiments were as follows: Beclin1/Bcl-2—300 nM/60 nM; SUMO (internal control for Beclin 1/Bcl-2 AlphaLISA)—20 nM; Beclin 1 BH3/Bcl-2—1000 nM/60 nM; Bax BH3/Bcl-2—100 nM/20 nM; Biotin-6xHis (internal control for BH3/Bcl-2 AlphaLISA)—10

Sequence of Beclin 1/Bcl-2 interaction (P10415 1-218): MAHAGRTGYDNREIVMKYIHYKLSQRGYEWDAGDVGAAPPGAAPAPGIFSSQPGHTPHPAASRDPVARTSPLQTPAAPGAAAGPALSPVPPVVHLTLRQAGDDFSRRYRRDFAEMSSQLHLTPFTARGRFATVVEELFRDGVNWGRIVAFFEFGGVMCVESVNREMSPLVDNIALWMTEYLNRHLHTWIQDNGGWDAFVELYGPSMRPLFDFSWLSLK

SMILES | IC50
CC1=NN(C(=O)c2ccc(Br)cc2)C(c2ccccc2)C1 (centres unmarked) [Lqr-8-296] | > 10000 nM
CC(C)(C)OC(=O)Nc1ccc(C2=NN(C(=O)c3ccc4c(c3)OCO4)C(c3ccccc3)C2)cc1 (centres unmarked) [Lqr-9-065] | 6770 nM
Cc1ccc(C(=O)N2N=C(c3ccc(NS(C)(=O)=O)cc3)CC2c2ccco2)cc1 (centres unmarked) [lqr-8-177] | 16200 nM
CS(=O)(=O)Nc1ccc(C2=NN(C(=O)c3ccc(Cl)cc3)C(c3ccco3)C2)cc1 (centres unmarked) [lqr-8-180] | 2760 nM
CS(=O)(=O)Nc1ccc(C2=NN(C(=O)c3ccc(F)cc3)C(c3ccco3)C2)cc1 (centres unmarked) [lqr-8-183] | 12800 nM
COc1ccc(C(=O)N2N=C(c3ccc(NS(C)(=O)=O)cc3)CC2c2ccco2)cc1 (centres unmarked) [lqr-8-185] | 9900 nM
CS(=O)(=O)Nc1ccc(C2=NN(C(=O)c3ccc(Br)cc3)C(c3ccco3)C2)cc1 (centres unmarked) [lqr-8-186] | 2420 nM
CS(=O)(=O)Nc1ccc(C2=NN(C(=O)c3ccc([N+](=O)[O-])cc3)C(c3ccco3)C2)cc1 (centres unmarked) [lqr-8-188] | 1680 nM
CS(=O)(=O)Nc1ccc(C2=NN(C(=O)c3ccc(C(F)(F)F)cc3)C(c3ccco3)C2)cc1 (centres unmarked) [lqr-8-189] | 2790 nM
CS(=O)(=O)Nc1ccc(C2=NN(C(=O)c3ccc(C#N)cc3)C(c3ccco3)C2)cc1 (centres unmarked) [lqr-8-190] | 7230 nM
CS(=O)(=O)Nc1ccc(C2=NN(C(=O)c3ccc(I)cc3)C(c3ccco3)C2)cc1 (centres unmarked) [lqr-8-196] | 2140 nM
Cc1ccc(C(=O)N2N=C(c3ccc(NC(=O)OC(C)(C)C)cc3)CC2c2ccco2)cc1 (centres unmarked) [lqr-8-203] | 2880 nM
CCNc1ccc(C2=NN(C(=O)c3ccc(C)cc3)C(c3ccco3)C2)cc1 (centres unmarked) [lqr-8-219] | 29800 nM
CC(C)(C)OC(=O)Nc1ccc(C2=NN(C(=O)c3ccc(Br)cc3)C(c3ccco3)C2)cc1 (centres unmarked) [lqr-8-231] | 982 nM
CC(C)(C)OC(=O)Nc1ccc(C2=NN(C(=O)c3ccc([N+](=O)[O-])cc3)C(c3ccco3)C2)cc1 (centres unmarked) [lqr-8-233] | 1240 nM
COC(=O)Nc1ccc(C2=NN(C(=O)c3ccc(C)cc3)C(c3ccco3)C2)cc1 (centres unmarked) [lqr-8-235] | 1800 nM
Cc1ccc(C(=O)N2N=C(c3ccc(NS(C)(=O)=O)cc3)CC2c2ccccc2)cc1 (centres unmarked) [lqr-8-238] | 905 nM
Cc1ccc(C(=O)N2N=C(c3ccc(NS(C)(=O)=O)cc3)CC2c2ccc(Br)cc2)cc1 (centres unmarked) [lqr-8-267] | 13900 nM
Cc1ccc(C(=O)N2N=C(c3ccc(NS(C)(=O)=O)cc3)CC2c2ccccc2Br)cc1 (centres unmarked) [lqr-8-269] | 9830 nM
Cc1ccc(C(=O)N2N=C(c3ccc(NS(C)(=O)=O)cc3)CC2c2ccc(C)cc2)cc1 (centres unmarked) [lqr-8-275] | 14200 nM
CC(C)(C)OC(=O)Nc1ccc(C2=NN(C(=O)c3ccc(Br)cc3)C(c3ccccc3)C2)cc1 (centres unmarked) [lqr-8-278] | 274 nM
CC(C)(C)OC(=O)Nc1ccc(C2=NN(C(=O)c3ccc([N+](=O)[O-])cc3)C(c3ccccc3)C2)cc1 (centres unmarked) [lqr-8-279] | 349 nM
CC(C)(C)OC(=O)Nc1ccc(C2=NN(C(=O)c3ccc(Br)cc3)C(c3ccc(Br)o3)C2)cc1 (centres unmarked) [lqr-8-302] | 2680 nM
O=C(c1ccc(Br)cc1)N1N=C(c2ccco2)CC1c1ccccc1 (centres unmarked) [lqr-8-309] | > 10000 nM

SMILES | IC50
O=C(c1ccc(Br)cc1)N1N=C(c2ccc[nH]2)CC1c1ccccc1 (centres unmarked) [lqr-8-310] | > 10000 nM
COC(=O)Nc1ccc(C2=NN(C(=O)c3ccc(Br)cc3)C(c3ccccc3)C2)cc1 (centres unmarked) [lqr-9-008] | 10000 nM
CC(C)(C)OC(=O)Nc1ccc(-c2cc(-c3ccccc3)[nH]n2)cc1 [lqr-9-012] | > 10000 nM
CC(C)(C)OC(=O)Nc1ccc(-c2cc(-c3ccccc3)n(C(=O)c3ccc(Br)cc3)n2)cc1 [lqr-9-013] | > 10000 nM
CC(C)(C)OC(=O)n1cccc1C1=NN(C(=O)c2ccc(Br)cc2)C(c2ccccc2)C1 (centres unmarked) [lqr-9-018] | > 10000 nM
CCC1CC(c2ccc(NC(=O)OC(C)(C)C)cc2)=NN1C(=O)c1ccc(Br)cc1 (centres unmarked) [lqr-9-026] | 13000 nM
CC(C)(C)OC(=O)Nc1ccc(C2=NN(C(=O)c3ccc(Br)cc3)C(c3ccccn3)C2)cc1 (centres unmarked) [lqr-9-033] | 455 nM
CC(C)(C)OC(=O)Nc1ccc(C2=NN(C(=O)c3ccc(Br)cc3)C(c3cccnc3)C2)cc1 (centres unmarked) [lqr-9-044] | 1800 nM
CC(C)(C)OC(=O)Nc1ccc(C2=NN(C(=O)c3ccc(Br)cc3)C(c3ccncc3)C2)cc1 (centres unmarked) [lqr-9-046] | 3000 nM
CC(C)(C)OC(=O)Nc1ccc(C2=NN(C(=O)c3ccc(Br)cc3)C(c3ccoc3)C2)cc1 (centres unmarked) [lqr-9-048] | 4100 nM
CC(C)(C)OC(=O)Nc1cccc(C2=NN(C(=O)c3ccc(Br)cc3)C(c3ccccc3)C2)c1 (centres unmarked) [lqr-9-055] | 12000 nM
CC(C)(C)OC(=O)Nc1ccc(C2=NN(C(=O)OC(C)(C)C)C(c3ccccc3)C2)cc1 (centres unmarked) [lqr-9-056] | > 10000 nM
O=C=Nc1ccc(C2=NN(C(=O)c3ccc(Br)cc3)C(c3ccccc3)C2)cc1 (centres unmarked) [lqr-9-068] | > 10000 nM
CC(C)NC(=O)Nc1ccc(C2=NN(C(=O)c3ccc(Br)cc3)C(c3ccccc3)C2)cc1 (centres unmarked) [lqr-9-076] | 349 nM
CC(C)NC(=O)Nc1ccc(C2=NN(C(=O)c3ccc(Br)cc3)C(c3ccccc3)C2)cc1 (centres unmarked) [lqr-9-085] | 63 nM
O=C1OCCN1c1ccc(C2=NN(C(=O)c3ccc(Br)cc3)C(c3ccccc3)C2)cc1 (centres unmarked) [lqr-9-088] | 5140 nM
CC(C)(C)NC(=O)Nc1ccc(C2=NN(C(=O)c3ccc(Br)cc3)C(c3ccccc3)C2)cc1 (centres unmarked) [lqr-9-118] | 9100 nM
CNC(=O)Nc1ccc(C2=NN(C(=O)c3ccc(Br)cc3)C(c3ccccc3)C2)cc1 (centres unmarked) [lqr-9-121] | 5520 nM
CC(C)COC(=O)Nc1ccc(C2=NN(C(=O)c3ccc(Br)cc3)C(c3ccccc3)C2)cc1 (centres unmarked) [lqr-9-155] | 184 nM
C=CCOC(=O)Nc1ccc(C2=NN(C(=O)c3ccc(Br)cc3)C(c3ccccc3)C2)cc1 (centres unmarked) [lqr-9-156] | < 156 nM
CCOC(=O)Nc1ccc(C2=NN(C(=O)c3ccc(Br)cc3)C(c3ccccc3)C2)cc1 (centres unmarked) [lqr-9-157] | < 156 nM
CN(C)C(=O)Nc1ccc(C2=NN(C(=O)c3ccc(Br)cc3)C(c3ccccc3)C2)cc1 (centres unmarked) [lqr-9-158] | 2390 nM
O=C(Nc1ccc(C2=NN(C(=O)c3ccc(Br)cc3)C(c3ccccc3)C2)cc1)OC1CC1 (centres unmarked) [lqr-9-161] | < 156 nM
